ChEMBL document CHEMBL6087486, “Monomeric or Homodimer Conjugates of Fibroblast Activation Protein Inhibitor and Cyanine 7 Bearing a Meso-Chloride as Near-Infrared Fluorescence Probes: Design, Synthesis, and Comparative In Vivo Imaging of Distinct Breast Cancer Subtypes” (J Med Chem, 2025)
The source made the active and inactive calls. No cut-off for these calls is given here.

Key:
[1] = Absorption property of compound in methanol assessed as maximal wavelength at 0.5 to 4 uM by UV-vis spectrophotometry; format: physicochemical; conditions: dose 0.5-4 µM
[2] = Emission property of compound in methanol assessed as maximal wavelength at 0.5 to 4 uM by […]; format: physicochemical; conditions: dose 0.5-4 µM
[3] = system: MCF7; experiment: Cytotoxicity against human MCF7 cells at; format: functional, cell-based; conditions: dose < 2.0 µM, time 24.0 hrs
[4] = system: MDA-MB-231; experiment: Cytotoxicity against human MDA-MB-231 cells at; format: functional, cell-based; conditions: dose < 2.0 µM, time 24.0 hrs
[5] = system: MCF7; experiment: Cytotoxicity against human MCF7 cells assessed as survival rate at 20 uM after 24 hrs by CCK8 assay relative to control; format: functional; conditions: read-out: Survival
[6] = system: MDA-MB-231; experiment: Cytotoxicity against human MDA-MB-231 cells assessed as survival rate at 20 uM after 24 hrs by CCK8 assay relative to control; format: functional; conditions: read-out: Survival
[7] = Drug uptake in human MCF7 cells assessed as fold increase in fluorescence intensity at 2 uM incubated for 2 hrs by CLSM analysis relative to control; format: functional
[8] = Drug uptake in human MDA-MB-231 cells assessed as fold increase in fluorescence intensity at 2 uM incubated for 2 hrs by CLSM analysis relative to control; format: functional
[9] = Biodistribution in liver of NCG mouse xenografted with human MCF7 cells at 15 uM, iv measured after 4 hrs by IVIS analysis; format: ADME, organism-based; conditions: in vivo
[10] = Biodistribution in tumor of NCG mouse xenografted with human MCF7 cells at 15 uM, iv measured for 0.5 to 72 hrs by IVIS analysis; format: ADME, organism-based, Neoplasm; conditions: in vivo, time 0.5-72 hrs
[11] = Biodistribution in tumor of NCG mouse xenografted with human MCF7 cells assessed as increase in retention time at 15 uM, iv measured for 0.5 to 72 hrs by IVIS analysis; format: ADME, organism-based, Neoplasm; conditions: in vivo, time 0.5-72 hrs
[12] = Ratio of drug uptake in tumor to liver of NCG mouse xenografted with human MCF7 cells at 15 uM, iv measured after 72 hrs by IVIS analysis; format: ADME, organism-based; conditions: in vivo
[13] = Biodistribution in tumor of NCG mouse xenografted with human MDA-MB-231 cells assessed as increase in retention time at 15 uM, iv measured for 0.5 to 72 hrs by IVIS analysis; format: ADME, organism-based, Neoplasm; conditions: in vivo, time 0.5-72 hrs
[14] = Biodistribution in tumor of NCG mouse xenografted with human MDA-MB-231 cells assessed as maximum fluorescence intensity at 15 uM, iv measured for 2 to 48 hrs by IVIS analysis; format: ADME, organism-based, Neoplasm; conditions: in vivo, time 2-48 hrs
[15] = Biodistribution in tumor of NCG mouse xenografted with human MDA-MB-231 cells 15 uM, iv measured upto 72 hrs by IVIS analysis; format: ADME, organism-based, Neoplasm; conditions: in vivo
[16] = Biodistribution in tumor of NCG mouse xenografted with human MDA-MB-231 cells assessed as fluorescence intensity at 15 uM, iv measured after 4 hrs by IVIS analysis; format: ADME, organism-based, Neoplasm; conditions: in vivo
[17] = Ratio of drug uptake in tumor to liver of NCG mouse xenografted with human MDA-MB-231 cells at 15 uM, iv measured upto 72 hrs by IVIS analysis; format: ADME, organism-based; conditions: in vivo
[18] = Metabolic stability in mouse liver microsomes assessed as half life; format: ADME, Microsome
[19] = Metabolic stability in mouse liver microsomes assessed as intrinsic clearance; format: ADME, Microsome; conditions: read-out: CLH
[20] = Metabolic stability in mouse liver microsomes assessed as hepatic clearance rate; format: ADME, Microsome; conditions: read-out: CLH
[21] = Metabolic stability in human liver microsomes assessed as half life; format: ADME, Microsome
[22] = Metabolic stability in human liver microsomes assessed as intrinsic clearance; format: ADME, Microsome; conditions: read-out: CLH
[23] = Metabolic stability in human liver microsomes assessed as hepatic clearance rate; format: ADME, Microsome; conditions: read-out: CLH
[24] = Half life in ICR mouse at 2 mg/kg, iv measured upto 24 hrs by LC-MS/MS analysis; format: ADME, organism-based; conditions: in vivo
[25] = Tlast in ICR mouse at 2 mg/kg, iv measured upto 24 hrs by LC-MS/MS analysis; format: ADME, organism-based; conditions: in vivo
[26] = C0 in ICR mouse at 2 mg/kg, iv measured upto 24 hrs by LC-MS/MS analysis; format: ADME, organism-based; conditions: in vivo
[27] = AUC (0 to t) in ICR mouse at 2 mg/kg, iv measured upto 24 hrs by LC-MS/MS analysis; format: ADME, organism-based; conditions: in vivo
[28] = AUC (0 to infinity) in ICR mouse at 2 mg/kg, iv measured upto 24 hrs by LC-MS/MS analysis; format: ADME, organism-based; conditions: in vivo
[29] = MRT (0 to t) in ICR mouse at 2 mg/kg, iv measured upto 24 hrs by LC-MS/MS analysis; format: ADME, organism-based; conditions: in vivo
[30] = MRT (0 to infinity) in ICR mouse at 2 mg/kg, iv measured upto 24 hrs by LC-MS/MS analysis; format: ADME, organism-based; conditions: in vivo
[31] = Volume of distribution at steady state in ICR mouse at 2 mg/kg, iv measured upto 24 hrs by LC-MS/MS analysis; format: ADME, organism-based; conditions: in vivo, read-out: Vdss
[32] = Apparent volume of distribution in ICR mouse at 2 mg/kg, iv measured upto 24 hrs by LC-MS/MS analysis; format: ADME, organism-based; conditions: in vivo, read-out: Vz
[33] = Clearance in ICR mouse at 2 mg/kg, iv measured upto 24 hrs by LC-MS/MS analysis; format: ADME, organism-based; conditions: in vivo
[34] = system: MDA-MB-231; experiment: Cytotoxicity against human MDA-MB-231 cells at >25 uM after 24 hrs by CCK8 assay; format: functional, cell-based
[35] = system: MCF7; experiment: Cytotoxicity against human MCF7 cells at >25 uM after 24 hrs by CCK8 assay; format: functional, cell-based
[36] = system: MDA-MB-231; experiment: Cytotoxicity against human MDA-MB-231 cells assessed as survival rate upto 20 uM after 24 hrs by CCK8 assay relative to control; format: functional; conditions: up to 20 µM
[37] = system: MCF7; experiment: Cytotoxicity against human MCF7 cells at >=5 uM after 24 hrs by CCK8 assay; format: functional, cell-based
[38] = system: MCF7; experiment: Cytotoxicity against human MCF7 cells at 20 uM after 24 hrs by CCK8 assay relative to control; format: functional
[39] = Biodistribution in liver of NCG mouse xenografted with human MCF7 cells at 15 uM, iv measured after 0.5 hrs by IVIS analysis; format: ADME, organism-based; conditions: in vivo
[40] = Biodistribution in tumor of NCG mouse xenografted with human MCF7 cells at 15 uM, iv measured after 1 to 2 hrs by IVIS analysis; format: ADME, organism-based, Neoplasm; conditions: in vivo, time 1-2 hrs
[41] = Biodistribution in tumor of NCG mouse xenografted with human MCF7 cells assessed as maximum fluorescence intensity at 15 uM, iv measured after 8 hrs by IVIS analysis; format: ADME, organism-based, Neoplasm; conditions: in vivo
[42] = Biodistribution in liver of NCG mouse xenografted with human MDA-MB-231 cells at 15 uM, iv measured for 24 hrs by IVIS analysis; format: ADME, organism-based; conditions: in vivo
[43] = Biodistribution in tumor of NCG mouse xenografted with human MDA-MB-231 cells at 15 uM, iv measured for 24 hrs by IVIS analysis; format: ADME, organism-based, Neoplasm; conditions: in vivo
[44] = Biodistribution in tumor of NCG mouse xenografted with human MDA-MB-231 cells assessed as maximum fluorescence intensity at 15 uM, iv measured for 24 hrs by IVIS analysis; format: ADME, organism-based, Neoplasm; conditions: in vivo
[45] = Ratio of drug uptake in tumor to liver of NCG mouse xenografted with human MDA-MB-231 cells at 15 uM, iv measured after 48 hrs by IVIS analysis; format: ADME, organism-based; conditions: in vivo
[46] = system: MCF7; experiment: Antitumor activity against human MCF7 cells xenografted in mouse assessed as decrease in tumor volume at 10 mg/kg, iv administered on days 1, 6, 11 and 16 measured on day 10; format: functional, organism-based; conditions: time 10.0 day
[47] = system: MCF7; experiment: Antitumor activity against human MCF7 cells xenografted in mouse assessed as tumor shrinkage at 20 mg/kg, iv administered on days 1, 6, 11 and 16 measured on day 10; format: functional, organism-based; conditions: time 10.0 day
[48] = system: MCF7; experiment: Antitumor activity against human MCF7 cells xenografted in mouse assessed as obvious effect at 10 to 20 mg/kg, iv administered on days 1, 6, 11 and 16 measured on day 21; format: functional, organism-based; conditions: dose 10-20 mg/kg, time 21.0 day
[49] = system: MCF7; experiment: Antitumor activity against human MCF7 cells xenografted in mouse assessed as tumor growth inhibition administered intravenously on days 1, 6, 11 and 16 measured on day 21; format: functional; conditions: dose 10-20 mg/kg, route iv, time 21.0 day
[50] = Toxicity in mouse xenografted with human MCF7 cells assessed as change in body weight at 10 to 20 mg/kg, iv administered on days 1, 6, 11 and 16 measured for 21 days; format: organism-based; conditions: in vivo, 504 h, dose 10-20 mg/kg, time 21 day

SMILES: CN(CCCN1CCN(C(=O)CCOCCOCCOCCOCCn2cc(CCCN3/C(=C/C=C4\CCCC(/C=C/C5=[N+](CCCc6cn(CCOCCOCCOCCOCCC(=O)N7CCN(CCCN(C)c8ccc9nccc(C(=O)NCC(=O)N%10CC(F)(F)C[C@H]%10C#N)c9c8)CC7)nn6)c6ccccc6C5(C)C)=C4Cl)C(C)(C)c4ccccc43)nn2)CC1)c1ccc2nccc(C(=O)NCC(=O)N3CC(F)(F)C[C@H]3C#N)c2c1
- Activity [1]: 784 nm
- Activity [2]: 823 nm
- Activity [3]: inactive
- Activity [4]: inactive
- viability at 20 µM [5]: 60%
- viability at 20 µM [6]: 67%
- fold change (FC) [7]: 45
- fold change (FC) [8]: 81
- Drug uptake [9]: Not_active
- Drug uptake [10]: Active
- Drug uptake [11]: Active
- Ratio [12]: 2.07
- Drug uptake [13]: Active
- Flu intensity [14]: 2.5 10^8No_unit
- Drug uptake [15]: Active
- Flu intensity [16]: > 2 10^8No_unit
- Ratio [17]: > 3
- half-life [18]: 4.4 min
- microsomal CLint [19]: 313 µL/min/mg
- CLint scaled [20]: 1240 mL/min/kg
- half-life [21]: 3.2 min
- microsomal CLint [22]: 430 µL/min/mg
- CLint scaled [23]: 387 mL/min/kg
- half-life [24]: 690 min
- Tlast [25]: 24 h
- C0 at 24 h [26]: 16800 ng/mL
- AUC(0-t) at 24 h [27]: 3600 ng·h/mL
- AUC(0-inf) [28]: 3650 ng·h/mL
- MRT last at 24 h [29]: 36.2 min
- MRT inf [30]: 63.6 min
- Vd [31]: 0.583 L/kg
- Vd [32]: 9.15 L/kg
- clearance [33]: 9 mL/min/kg

SMILES: CN(CCCN1CCN(C(=O)OC(C)(C)C)CC1)c1ccc2nccc(C(=O)NCC(=O)N3CC(F)(F)C[C@H]3C#N)c2c1
- Activity [34]: Active
- Activity [35]: Active

SMILES: CN(CCCN1CCN(C(=O)CN2CCN(CC(=O)O)CCN(CC(=O)O)CCN(CC(=O)O)CC2)CC1)c1ccc2nccc(C(=O)NCC(=O)N3CC(F)(F)C[C@H]3C#N)c2c1
- Activity [34]: Active
- Activity [35]: Active

SMILES: C#CCCCN1/C(=C/C=C2\CCCC(/C=C/C3=[N+](CCCc4cn(CCOCCOCCOCCOCCC(=O)N5CCN(CCCN(C)c6ccc7nccc(C(=O)NCC(=O)N8CC(F)(F)C[C@H]8C#N)c7c6)CC5)nn4)c4ccccc4C3(C)C)=C2Cl)C(C)(C)c2ccccc21
- Survival [36]: ~80%
- Activity [1]: 783 nm
- Activity [2]: 820 nm
- Activity [3]: inactive
- Activity [4]: inactive
- Activity [37]: Active
- Activity [38]: 4.5%
- fold change (FC) [7]: 280
- fold change (FC) [8]: 431
- Drug uptake [39]: Not_active
- Drug uptake [40]: Active
- Flu intensity [41]: 6.13 10^7No_unit
- Ratio [12]: 2.43
- Drug uptake [42]: Not_active
- Drug uptake [43]: Active
- Flu intensity [44]: 8.43 10^7No_unit
- Ratio [45]: 4.47
- half-life [18]: 4.3 min
- microsomal CLint [19]: 325 µL/min/mg
- CLint scaled [20]: 1290 mL/min/kg
- half-life [21]: 5.5 min
- microsomal CLint [22]: 253 µL/min/mg
- CLint scaled [23]: 228 mL/min/kg
- half-life [24]: 12.5 min
- Tlast [25]: 1.5 h
- C0 at 24 h [26]: 829 ng/mL
- AUC(0-t) at 24 h [27]: 165 ng·h/mL
- AUC(0-inf) [28]: 166 ng·h/mL
- MRT last at 24 h [29]: 10.4 min
- MRT inf [30]: 11.4 min
- Vd [31]: 2.45 L/kg
- Vd [32]: 3.92 L/kg
- clearance [33]: 204 mL/min/kg
- Activity [46]: inactive
- Activity [47]: Active
- Activity [48]: Active
- inhibition [49]: Dose-dependent-effect
- Activity [50]: Non-toxic
